Read-outs that look alike come from different tables or passages of the source.
What was measured:
[1] = in vivo; conditions: male, beagle, dog, po, 1 mg/kg
[2] = in vivo; conditions: male, CD-1, mouse, iv, 10 mg/kg
[3] = mice, 10 mg/kg 2-PMPA equivalent dose, mean ± SEM, n = 3
[4] = oral 2-PMPA; cited from earlier work
[5] = test system: 100 different transporters, enzymes, and receptors, including several glutamate targets; conditions: selectivity; cited from earlier work
[6] = mice, cited from earlier work
[7] = human, microsomes
[8] = mouse, microsomes
[9] = dog, microsomes

SMILES	AUC(0-t) [1]	Cmax [1]	Tmax [1]	AUC(0-t) [2]	Cmax [2]	Kp [2]	2-PMPA plasma concentration at 30 min post oral administration [3]	oral bioavailability (F) [4]	activity at 100 different transporters, enzymes, and receptors [5]	2-PMPA plasma AUC0−t ([6]; oral 2-PMPA, ref our previously published manuscript)	oral bioavailability ([6]; oral)	2-PMPA brain AUC0−t (mice, IV, 10 mg/kg)	2-PMPA brain Cmax (mice, IV, 10 mg/kg)	Intestinal microsomal stability, intact prodrug level at the end of 1 h incubation [7]	Intestinal microsomal stability, intact prodrug level at the end of 1 h incubation [8]	metabolites (including 2 and 3) detected in plasma (mouse, in vivo, po)	Intestinal microsomal stability, intact prodrug level at the end of 1 h incubation [9]	fold enhancement in 2-PMPA systemic availability versus orally administered 2-PMPA ([6]; oral)
O=C(O)CCC(CP(=O)(O)O)C(=O)O (stereo not shown) [Prodrug 2-PMPA, 2-(Phosphonomethyl)-pentanedioic acid]	1.44 µM·h	400 nM	2 h	104 ± 19 µM·h	109 ± 9.5 µM	0.015	0.25 ± 0.02 nmol/mL	< 1%	no activity	0.65 ± 0.13 nmol·h/mL	< 1%	1.6 ± 0.2 nmol·h/g	1.2 ± 0.1 nmol/g	–	–	–	–	–
Cc1oc(=O)oc1COC(=O)CCC(CP(=O)(OCc1oc(=O)oc1C)OCc1oc(=O)oc1C)C(=O)OCc1oc(=O)oc1C (stereo not shown) [Prodrug 4]	–	–	–	–	–	–	–	–	–	–	–	–	–	did not show any intact prodrug level	did not show any intact prodrug level	No metabolites, including 2 and 3, were detected	did not show any intact prodrug level	–
CC(C)OC(=O)OCOC(=O)C(CCC(=O)O)CP(=O)(OCOC(=O)OC(C)C)OCOC(=O)OC(C)C (stereo not shown) [Prodrug 21b]	–	–	–	–	–	–	–	–	–	–	11.5%	–	–	–	–	–	–	20 fold

Source: publication PMC7978038 (Molecular pharmaceutics, 2019)
